Source: ChEMBL document CHEMBL5653631, “A Potent and Selective ULK1 Inhibitor Suppresses Autophagy and Sensitizes Cancer Cells to Nutrient Stress” (iScience, 2018)

Legend:
[1] = target: Homeodomain-interacting protein kinase 3 (Homo sapiens) (UniProt Q9H422); experiment: Inhibition of human recombinant HIPK3 at 40 nM in presence of ATP by radiometric assay relative to control
[2] = target: T1, Ephrin type-A receptor 3 (Homo sapiens) (UniProt P29320); experiment: Inhibition of human recombinant EphA3 at 40 nM in presence of ATP by radiometric assay relative to control
T1 sequence (whole entry): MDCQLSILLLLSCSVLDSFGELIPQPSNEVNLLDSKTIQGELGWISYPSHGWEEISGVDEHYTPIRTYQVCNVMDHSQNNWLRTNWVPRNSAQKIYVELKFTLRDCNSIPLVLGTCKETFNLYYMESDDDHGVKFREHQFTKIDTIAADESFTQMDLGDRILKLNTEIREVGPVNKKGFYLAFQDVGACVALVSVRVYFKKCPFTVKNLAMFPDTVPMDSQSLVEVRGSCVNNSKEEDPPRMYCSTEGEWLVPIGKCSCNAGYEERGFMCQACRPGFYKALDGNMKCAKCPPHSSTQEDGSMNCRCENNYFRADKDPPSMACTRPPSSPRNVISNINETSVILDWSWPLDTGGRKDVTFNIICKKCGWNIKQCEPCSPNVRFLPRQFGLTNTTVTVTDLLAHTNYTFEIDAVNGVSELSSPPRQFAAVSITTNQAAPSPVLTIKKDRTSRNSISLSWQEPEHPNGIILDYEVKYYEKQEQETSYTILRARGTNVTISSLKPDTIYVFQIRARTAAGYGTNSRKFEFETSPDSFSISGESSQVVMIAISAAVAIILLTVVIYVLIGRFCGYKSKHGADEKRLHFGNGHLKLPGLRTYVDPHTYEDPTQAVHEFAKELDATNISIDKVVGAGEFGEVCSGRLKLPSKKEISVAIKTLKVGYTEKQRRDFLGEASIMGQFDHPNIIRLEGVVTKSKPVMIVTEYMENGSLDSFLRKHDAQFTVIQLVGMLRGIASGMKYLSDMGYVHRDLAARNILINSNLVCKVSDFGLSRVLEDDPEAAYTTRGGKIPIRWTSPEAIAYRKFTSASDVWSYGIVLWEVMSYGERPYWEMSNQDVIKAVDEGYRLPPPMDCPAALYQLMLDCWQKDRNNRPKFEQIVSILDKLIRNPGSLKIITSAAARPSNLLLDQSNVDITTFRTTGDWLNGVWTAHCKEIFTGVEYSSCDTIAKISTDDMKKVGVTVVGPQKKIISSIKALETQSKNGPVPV

[3] = target: Ribosomal protein S6 kinase alpha-1 (Homo sapiens) (UniProt Q15418); experiment: Inhibition of human recombinant RSK1 at 40 nM related to control ULK1
[4] = target: T2, Testis-specific serine/threonine-protein kinase 1 (Homo sapiens) (UniProt Q9BXA7); experiment: Inhibition of human recombinant TSSK1 at 500 nM related to control ULK1
T2 sequence (whole entry): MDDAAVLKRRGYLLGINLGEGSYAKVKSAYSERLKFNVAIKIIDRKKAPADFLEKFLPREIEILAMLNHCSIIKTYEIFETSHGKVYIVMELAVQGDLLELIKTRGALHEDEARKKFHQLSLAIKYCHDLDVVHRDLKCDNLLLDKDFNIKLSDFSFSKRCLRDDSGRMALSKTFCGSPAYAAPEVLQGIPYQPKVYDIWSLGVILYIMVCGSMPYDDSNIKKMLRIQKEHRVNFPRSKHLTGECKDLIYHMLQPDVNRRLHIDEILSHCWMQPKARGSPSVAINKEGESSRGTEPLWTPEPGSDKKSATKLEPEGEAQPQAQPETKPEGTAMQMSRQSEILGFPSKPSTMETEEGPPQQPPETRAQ

[5] = target: T3, cGMP-dependent protein kinase 1 (Homo sapiens) (UniProt Q13976); experiment: Inhibition of human recombinant PKG1 at 500 nM in presence of ATP by radiometric assay relative to control
T3 sequence (whole entry): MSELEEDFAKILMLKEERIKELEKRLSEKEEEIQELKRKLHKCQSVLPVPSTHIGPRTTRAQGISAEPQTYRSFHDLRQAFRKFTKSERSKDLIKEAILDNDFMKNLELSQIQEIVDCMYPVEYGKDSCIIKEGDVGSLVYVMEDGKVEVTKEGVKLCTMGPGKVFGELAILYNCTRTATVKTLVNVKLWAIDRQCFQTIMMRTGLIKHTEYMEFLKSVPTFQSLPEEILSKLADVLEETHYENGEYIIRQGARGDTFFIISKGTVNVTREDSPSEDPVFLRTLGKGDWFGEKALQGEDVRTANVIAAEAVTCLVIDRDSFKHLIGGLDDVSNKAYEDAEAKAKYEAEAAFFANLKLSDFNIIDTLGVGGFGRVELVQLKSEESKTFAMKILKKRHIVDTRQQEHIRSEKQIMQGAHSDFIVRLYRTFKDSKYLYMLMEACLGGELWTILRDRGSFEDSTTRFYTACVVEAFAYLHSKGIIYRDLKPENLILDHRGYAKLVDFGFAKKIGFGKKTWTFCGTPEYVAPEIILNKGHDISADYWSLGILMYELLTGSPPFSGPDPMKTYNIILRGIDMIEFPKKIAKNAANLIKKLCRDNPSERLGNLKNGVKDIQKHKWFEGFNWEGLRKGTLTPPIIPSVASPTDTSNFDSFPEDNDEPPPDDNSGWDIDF

[6] = target: Ephrin type-A receptor 2 (Homo sapiens) (UniProt P29317); experiment: Inhibition of human recombinant EphA2 at 500 nM related to control ULK1
[7] = target: T4, Dual specificity tyrosine-phosphorylation-regulated kinase 3 (Homo sapiens) (UniProt O43781); experiment: Inhibition of human recombinant DYRK3 at 15 nM in presence of ATP by radiometric assay relative to control
T4 sequence (whole entry): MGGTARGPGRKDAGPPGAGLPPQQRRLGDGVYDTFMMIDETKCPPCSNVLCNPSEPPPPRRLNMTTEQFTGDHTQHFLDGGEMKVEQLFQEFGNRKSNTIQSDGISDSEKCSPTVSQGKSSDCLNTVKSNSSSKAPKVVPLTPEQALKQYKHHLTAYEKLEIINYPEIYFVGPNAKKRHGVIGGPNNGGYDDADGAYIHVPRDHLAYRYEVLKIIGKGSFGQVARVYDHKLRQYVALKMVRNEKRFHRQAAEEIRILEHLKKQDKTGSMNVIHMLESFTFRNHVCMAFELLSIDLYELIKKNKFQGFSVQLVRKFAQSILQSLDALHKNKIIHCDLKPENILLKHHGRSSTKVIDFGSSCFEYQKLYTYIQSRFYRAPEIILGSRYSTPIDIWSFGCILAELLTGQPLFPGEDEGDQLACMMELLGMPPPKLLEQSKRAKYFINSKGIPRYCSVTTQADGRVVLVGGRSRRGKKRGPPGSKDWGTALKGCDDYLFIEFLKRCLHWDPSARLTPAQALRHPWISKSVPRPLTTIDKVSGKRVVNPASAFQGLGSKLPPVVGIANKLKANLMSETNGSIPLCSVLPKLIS

[8] = target: Wee1-like protein kinase 2 (Homo sapiens) (UniProt P0C1S8); experiment: Inhibition of human recombinant Wee1B at 15 nM in presence of ATP by radiometric assay relative to control
Wee1-like protein kinase 2 (Homo sapiens), sequence (P0C1S8 whole entry, looked up): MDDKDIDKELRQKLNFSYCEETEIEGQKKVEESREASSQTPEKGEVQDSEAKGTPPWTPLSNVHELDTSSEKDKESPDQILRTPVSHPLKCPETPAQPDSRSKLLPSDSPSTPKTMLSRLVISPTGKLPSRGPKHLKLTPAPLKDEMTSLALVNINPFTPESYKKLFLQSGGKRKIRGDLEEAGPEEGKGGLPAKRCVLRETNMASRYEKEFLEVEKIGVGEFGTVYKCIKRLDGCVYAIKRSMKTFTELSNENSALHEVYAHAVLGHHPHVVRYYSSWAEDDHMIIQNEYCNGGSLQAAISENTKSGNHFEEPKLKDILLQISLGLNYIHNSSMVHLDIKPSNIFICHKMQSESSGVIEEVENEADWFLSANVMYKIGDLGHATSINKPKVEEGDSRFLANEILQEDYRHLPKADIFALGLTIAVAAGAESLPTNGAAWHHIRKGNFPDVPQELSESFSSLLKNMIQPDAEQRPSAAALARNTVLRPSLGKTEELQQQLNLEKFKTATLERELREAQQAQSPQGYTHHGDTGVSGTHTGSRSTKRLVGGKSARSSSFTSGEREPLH

Ephrin type-A receptor 2 (Homo sapiens), sequence (P29317 whole entry): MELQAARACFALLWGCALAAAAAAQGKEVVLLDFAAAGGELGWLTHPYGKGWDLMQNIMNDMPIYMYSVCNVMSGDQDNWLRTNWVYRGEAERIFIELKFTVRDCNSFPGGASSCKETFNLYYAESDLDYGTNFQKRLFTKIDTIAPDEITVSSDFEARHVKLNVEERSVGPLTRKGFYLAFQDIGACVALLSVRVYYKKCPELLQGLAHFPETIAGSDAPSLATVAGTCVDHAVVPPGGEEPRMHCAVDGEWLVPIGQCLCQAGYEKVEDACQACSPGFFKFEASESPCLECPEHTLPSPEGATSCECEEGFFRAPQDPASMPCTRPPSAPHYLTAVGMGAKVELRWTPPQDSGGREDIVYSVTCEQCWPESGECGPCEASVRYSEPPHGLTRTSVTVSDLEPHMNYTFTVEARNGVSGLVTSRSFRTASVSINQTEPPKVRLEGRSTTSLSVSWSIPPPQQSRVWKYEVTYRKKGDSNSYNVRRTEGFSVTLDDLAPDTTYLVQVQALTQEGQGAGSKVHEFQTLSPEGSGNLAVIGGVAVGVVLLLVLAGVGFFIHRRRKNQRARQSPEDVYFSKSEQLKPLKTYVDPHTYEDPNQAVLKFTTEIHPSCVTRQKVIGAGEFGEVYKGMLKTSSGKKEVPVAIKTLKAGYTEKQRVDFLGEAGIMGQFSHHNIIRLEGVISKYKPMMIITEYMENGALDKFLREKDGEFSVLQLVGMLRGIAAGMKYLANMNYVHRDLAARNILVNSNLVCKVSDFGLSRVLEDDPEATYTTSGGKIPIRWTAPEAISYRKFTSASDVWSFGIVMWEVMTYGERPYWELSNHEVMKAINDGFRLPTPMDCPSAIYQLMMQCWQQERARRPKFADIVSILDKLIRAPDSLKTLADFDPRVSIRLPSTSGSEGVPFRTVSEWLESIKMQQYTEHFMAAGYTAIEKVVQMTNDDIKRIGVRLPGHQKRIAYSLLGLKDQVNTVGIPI
Homeodomain-interacting protein kinase 3 (Homo sapiens), sequence (Q9H422 whole entry, looked up): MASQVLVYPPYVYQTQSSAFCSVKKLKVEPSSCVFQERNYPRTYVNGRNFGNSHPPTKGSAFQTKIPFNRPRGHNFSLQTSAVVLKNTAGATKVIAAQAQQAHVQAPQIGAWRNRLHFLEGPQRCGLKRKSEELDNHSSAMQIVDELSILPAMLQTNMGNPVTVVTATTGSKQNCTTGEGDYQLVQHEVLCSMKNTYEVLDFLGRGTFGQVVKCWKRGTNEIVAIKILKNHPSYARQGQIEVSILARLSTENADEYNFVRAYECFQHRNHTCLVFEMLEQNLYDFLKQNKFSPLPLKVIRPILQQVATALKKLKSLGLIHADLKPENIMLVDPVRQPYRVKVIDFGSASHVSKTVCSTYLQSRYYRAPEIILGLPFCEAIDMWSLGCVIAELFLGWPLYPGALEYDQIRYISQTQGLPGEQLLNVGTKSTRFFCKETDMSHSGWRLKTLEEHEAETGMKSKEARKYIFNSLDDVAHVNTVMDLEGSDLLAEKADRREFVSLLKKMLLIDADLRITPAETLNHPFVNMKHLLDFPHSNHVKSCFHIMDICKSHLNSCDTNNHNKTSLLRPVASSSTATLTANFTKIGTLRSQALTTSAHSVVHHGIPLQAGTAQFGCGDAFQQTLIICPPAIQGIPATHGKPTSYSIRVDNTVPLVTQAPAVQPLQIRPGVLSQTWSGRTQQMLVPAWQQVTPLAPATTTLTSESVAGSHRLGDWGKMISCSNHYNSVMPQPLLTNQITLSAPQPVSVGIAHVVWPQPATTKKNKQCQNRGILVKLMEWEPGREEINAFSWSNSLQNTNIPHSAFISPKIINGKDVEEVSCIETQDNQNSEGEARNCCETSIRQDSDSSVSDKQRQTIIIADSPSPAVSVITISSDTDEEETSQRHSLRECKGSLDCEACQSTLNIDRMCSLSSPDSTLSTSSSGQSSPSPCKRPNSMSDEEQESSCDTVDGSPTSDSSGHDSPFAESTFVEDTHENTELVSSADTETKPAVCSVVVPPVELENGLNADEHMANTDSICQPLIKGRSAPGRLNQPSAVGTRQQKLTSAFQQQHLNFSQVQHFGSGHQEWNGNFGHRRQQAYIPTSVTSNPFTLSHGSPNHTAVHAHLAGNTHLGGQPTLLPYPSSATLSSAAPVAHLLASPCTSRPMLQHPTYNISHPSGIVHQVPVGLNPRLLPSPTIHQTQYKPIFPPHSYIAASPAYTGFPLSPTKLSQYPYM
Ribosomal protein S6 kinase alpha-1 (Homo sapiens), sequence (Q15418 whole entry): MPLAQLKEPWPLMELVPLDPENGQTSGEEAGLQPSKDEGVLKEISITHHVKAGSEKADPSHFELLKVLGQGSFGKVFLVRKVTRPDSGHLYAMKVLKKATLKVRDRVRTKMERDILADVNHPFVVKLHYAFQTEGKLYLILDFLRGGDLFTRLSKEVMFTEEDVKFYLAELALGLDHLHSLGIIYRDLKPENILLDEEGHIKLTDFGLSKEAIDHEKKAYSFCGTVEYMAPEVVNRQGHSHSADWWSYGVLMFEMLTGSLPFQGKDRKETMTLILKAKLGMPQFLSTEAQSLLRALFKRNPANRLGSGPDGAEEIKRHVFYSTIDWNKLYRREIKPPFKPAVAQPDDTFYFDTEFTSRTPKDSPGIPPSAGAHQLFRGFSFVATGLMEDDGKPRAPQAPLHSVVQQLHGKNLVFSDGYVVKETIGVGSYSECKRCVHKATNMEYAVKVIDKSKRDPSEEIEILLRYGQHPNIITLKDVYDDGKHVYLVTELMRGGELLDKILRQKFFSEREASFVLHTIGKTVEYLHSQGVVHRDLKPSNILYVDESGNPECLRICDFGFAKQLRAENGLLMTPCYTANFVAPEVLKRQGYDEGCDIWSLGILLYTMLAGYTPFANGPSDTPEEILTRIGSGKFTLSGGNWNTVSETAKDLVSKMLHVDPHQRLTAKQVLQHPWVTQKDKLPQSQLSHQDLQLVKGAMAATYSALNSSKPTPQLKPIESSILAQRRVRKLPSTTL

O=C(N[C@@H](C1CC1)C(F)(F)F)c1cc(-c2cnn3cc(-c4ccc(F)cc4)cnc23)cs1
inhibition [1]: 5% | inhibition [2]: 15% | fold change (FC) [3]: 0.11

CNC(=O)c1ccccc1Oc1nc(Nc2cc(OC)c(OC)c(OC)c2)ncc1Br
fold change (FC) [4]: 0 | inhibition [5]: 4% | fold change (FC) [6]: 0.03

CC(C)[C@H](NC(=O)c1cc(-c2cnn3cc(-c4ccc(OCCN5CCCCC5)cc4)cnc23)cs1)C(F)(F)F
inhibition [7]: 23% | inhibition [8]: 11%
